Assay results: ChEMBL document CHEMBL5465560, “Selectivity Literature for EUbOPEN Chemogenomic Library” (2024)

Columns and labels:
[1] = target: Non-receptor tyrosine-protein kinase TYK2 (Homo sapiens, UniProt P29597); assay: Selectivity interaction (KinomeScan (DiscoverX)) EUB0000229b TYK2; conditions: at 10 µM
[2] = target: T1, TGF-beta receptor type-1 (Homo sapiens) (UniProt P36897); assay: Selectivity interaction (KinomeScan (DiscoverX)) EUB0000229b TGFBR1; conditions: at 10 µM
T1 sequence (whole entry): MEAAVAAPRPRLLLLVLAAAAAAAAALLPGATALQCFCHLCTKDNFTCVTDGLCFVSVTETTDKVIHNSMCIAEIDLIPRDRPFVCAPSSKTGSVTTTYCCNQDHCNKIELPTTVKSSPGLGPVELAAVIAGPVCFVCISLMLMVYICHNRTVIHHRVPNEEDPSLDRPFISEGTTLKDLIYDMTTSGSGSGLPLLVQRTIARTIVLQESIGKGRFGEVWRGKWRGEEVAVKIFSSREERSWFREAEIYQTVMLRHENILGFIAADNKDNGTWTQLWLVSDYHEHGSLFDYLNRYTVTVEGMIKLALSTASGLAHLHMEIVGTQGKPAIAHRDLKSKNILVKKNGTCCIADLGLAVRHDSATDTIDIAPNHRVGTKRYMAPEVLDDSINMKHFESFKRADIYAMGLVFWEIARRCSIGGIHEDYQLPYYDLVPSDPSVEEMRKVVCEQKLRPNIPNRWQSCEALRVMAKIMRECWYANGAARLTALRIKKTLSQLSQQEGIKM

[3] = target: Histone-lysine N-methyltransferase SETD2 (Homo sapiens) (UniProt Q9BYW2); conditions: at 10 µM
[4] = target: T2, cGMP-dependent protein kinase 1 (Homo sapiens) (UniProt Q13976); assay: Selectivity interaction (KinomeScan (DiscoverX)) EUB0000045b PRKG1
T2 sequence (whole entry): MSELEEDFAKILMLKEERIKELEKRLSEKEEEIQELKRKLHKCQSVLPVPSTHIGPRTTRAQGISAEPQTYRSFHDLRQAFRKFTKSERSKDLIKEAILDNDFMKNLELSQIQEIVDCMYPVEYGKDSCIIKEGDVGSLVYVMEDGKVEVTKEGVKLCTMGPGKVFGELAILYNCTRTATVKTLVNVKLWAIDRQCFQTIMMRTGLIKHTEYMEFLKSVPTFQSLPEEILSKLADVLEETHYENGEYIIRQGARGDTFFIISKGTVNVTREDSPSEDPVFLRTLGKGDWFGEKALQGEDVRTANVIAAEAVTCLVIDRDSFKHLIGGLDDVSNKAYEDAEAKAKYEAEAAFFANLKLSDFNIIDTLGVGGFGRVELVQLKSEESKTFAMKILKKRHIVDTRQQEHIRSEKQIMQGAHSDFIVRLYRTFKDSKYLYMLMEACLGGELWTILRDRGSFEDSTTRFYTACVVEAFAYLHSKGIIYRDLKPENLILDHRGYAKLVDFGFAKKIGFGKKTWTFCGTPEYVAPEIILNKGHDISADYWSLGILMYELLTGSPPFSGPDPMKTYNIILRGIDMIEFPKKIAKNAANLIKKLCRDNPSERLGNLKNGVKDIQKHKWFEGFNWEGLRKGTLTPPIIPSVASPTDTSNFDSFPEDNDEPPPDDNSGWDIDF

[5] = target: Serine/threonine-protein kinase PAK 6 (Homo sapiens) (UniProt Q9NQU5); assay: Selectivity interaction (KinomeScan (DiscoverX)) EUB0000045b PAK6; conditions: at 10 µM
[6] = target: Cyclin-dependent kinase 9 (Homo sapiens, UniProt P50750); assay: Selectivity interaction (KinomeScan (DiscoverX)) EUB0001079a CDK9; conditions: at 1 µM
[7] = target: Tyrosine-protein kinase ABL1 (Homo sapiens, UniProt P00519); assay: Selectivity interaction (Kinase panel (Enzyme activity assay)) EUB0000612a ABL1
[8] = target: Mitogen-activated protein kinase kinase kinase 4 (Homo sapiens) (UniProt Q9Y6R4); assay: Selectivity interaction (KinomeScan (DiscoverX)) EUB0001619a MAP3K4; conditions: at 1 µM
[9] = target: T3, Serine/threonine-protein kinase greatwall (Homo sapiens) (UniProt Q96GX5); assay: Selectivity interaction (ActivX KiNativ screen (kinase selectivity in THP-1 cell lysates)) EUB0000639a MASTL; format: subcellular; conditions: lysate, at 0.2 µM
T3 sequence (whole entry): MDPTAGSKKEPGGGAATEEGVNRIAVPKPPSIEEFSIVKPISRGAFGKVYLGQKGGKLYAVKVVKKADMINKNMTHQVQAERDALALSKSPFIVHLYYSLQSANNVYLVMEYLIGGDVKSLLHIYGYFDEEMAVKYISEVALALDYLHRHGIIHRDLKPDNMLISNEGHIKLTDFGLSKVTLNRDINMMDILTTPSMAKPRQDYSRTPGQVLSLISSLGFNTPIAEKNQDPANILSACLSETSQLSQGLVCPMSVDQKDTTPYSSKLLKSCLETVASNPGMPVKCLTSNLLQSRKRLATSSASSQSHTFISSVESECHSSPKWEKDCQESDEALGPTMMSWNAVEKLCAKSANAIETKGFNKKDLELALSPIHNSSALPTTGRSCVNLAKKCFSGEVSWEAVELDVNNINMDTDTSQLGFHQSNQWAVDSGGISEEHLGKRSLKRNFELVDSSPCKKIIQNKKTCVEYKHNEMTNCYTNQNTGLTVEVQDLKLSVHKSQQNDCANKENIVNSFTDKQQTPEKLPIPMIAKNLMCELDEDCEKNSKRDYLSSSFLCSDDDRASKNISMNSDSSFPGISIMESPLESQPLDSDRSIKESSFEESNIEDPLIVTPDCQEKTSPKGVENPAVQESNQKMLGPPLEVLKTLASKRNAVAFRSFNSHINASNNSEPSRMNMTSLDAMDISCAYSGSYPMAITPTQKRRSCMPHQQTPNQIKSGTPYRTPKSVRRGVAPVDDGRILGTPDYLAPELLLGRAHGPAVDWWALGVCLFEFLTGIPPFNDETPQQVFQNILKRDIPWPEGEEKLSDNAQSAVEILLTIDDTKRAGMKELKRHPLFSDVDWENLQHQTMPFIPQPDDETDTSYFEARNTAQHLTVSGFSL

Chain of Non-receptor tyrosine-protein kinase TYK2 (P29597 whole entry): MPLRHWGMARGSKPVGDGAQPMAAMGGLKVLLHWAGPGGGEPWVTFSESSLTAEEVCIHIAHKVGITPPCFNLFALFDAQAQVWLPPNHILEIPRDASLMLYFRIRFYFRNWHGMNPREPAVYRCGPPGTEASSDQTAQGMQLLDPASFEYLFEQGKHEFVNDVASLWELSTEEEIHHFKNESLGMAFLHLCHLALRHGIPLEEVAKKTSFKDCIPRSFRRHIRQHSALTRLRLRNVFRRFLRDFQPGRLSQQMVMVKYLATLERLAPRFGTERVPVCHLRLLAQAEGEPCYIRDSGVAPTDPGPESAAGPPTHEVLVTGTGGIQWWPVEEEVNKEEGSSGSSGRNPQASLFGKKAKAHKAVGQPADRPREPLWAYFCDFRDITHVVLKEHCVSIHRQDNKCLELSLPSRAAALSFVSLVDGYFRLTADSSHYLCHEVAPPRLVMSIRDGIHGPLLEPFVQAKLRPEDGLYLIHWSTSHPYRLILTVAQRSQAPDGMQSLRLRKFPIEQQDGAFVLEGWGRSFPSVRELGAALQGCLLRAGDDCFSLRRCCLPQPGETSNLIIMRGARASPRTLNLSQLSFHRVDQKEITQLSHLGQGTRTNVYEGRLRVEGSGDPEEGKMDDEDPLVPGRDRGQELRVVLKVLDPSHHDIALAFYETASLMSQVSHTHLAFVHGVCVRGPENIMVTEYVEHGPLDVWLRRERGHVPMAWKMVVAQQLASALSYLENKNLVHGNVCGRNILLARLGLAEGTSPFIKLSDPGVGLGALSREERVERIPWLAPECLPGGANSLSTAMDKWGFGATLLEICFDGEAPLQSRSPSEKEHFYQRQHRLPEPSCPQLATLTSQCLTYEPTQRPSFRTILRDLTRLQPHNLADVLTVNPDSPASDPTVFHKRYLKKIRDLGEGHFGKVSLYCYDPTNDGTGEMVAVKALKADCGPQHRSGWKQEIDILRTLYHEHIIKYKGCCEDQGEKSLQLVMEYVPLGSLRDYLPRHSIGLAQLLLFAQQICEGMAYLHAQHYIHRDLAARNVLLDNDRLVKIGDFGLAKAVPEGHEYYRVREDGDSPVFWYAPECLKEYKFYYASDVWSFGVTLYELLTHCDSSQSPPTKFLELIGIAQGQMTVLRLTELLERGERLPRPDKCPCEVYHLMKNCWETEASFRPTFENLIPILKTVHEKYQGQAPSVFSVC
Chain of Serine/threonine-protein kinase PAK 6 (Homo sapiens) (Q9NQU5 whole entry, looked up): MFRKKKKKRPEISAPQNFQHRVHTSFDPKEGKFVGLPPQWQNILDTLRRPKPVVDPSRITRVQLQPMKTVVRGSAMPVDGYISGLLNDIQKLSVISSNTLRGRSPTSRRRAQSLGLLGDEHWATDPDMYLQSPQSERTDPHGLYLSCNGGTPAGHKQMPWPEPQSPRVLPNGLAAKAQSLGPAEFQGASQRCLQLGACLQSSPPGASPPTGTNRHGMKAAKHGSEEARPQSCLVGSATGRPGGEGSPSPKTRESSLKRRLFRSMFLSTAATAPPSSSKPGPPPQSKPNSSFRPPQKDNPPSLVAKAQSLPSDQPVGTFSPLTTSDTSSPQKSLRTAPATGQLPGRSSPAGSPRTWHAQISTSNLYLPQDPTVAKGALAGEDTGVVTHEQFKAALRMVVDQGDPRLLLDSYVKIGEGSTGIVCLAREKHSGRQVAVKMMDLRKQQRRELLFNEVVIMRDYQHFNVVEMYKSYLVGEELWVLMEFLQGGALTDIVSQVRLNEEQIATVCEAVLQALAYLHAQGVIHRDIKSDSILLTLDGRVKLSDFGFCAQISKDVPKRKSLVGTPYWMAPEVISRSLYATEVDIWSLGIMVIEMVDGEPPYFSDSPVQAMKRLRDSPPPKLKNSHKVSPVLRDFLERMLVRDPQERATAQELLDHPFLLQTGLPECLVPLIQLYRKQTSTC
Chain of Mitogen-activated protein kinase kinase kinase 4 (Homo sapiens) (Q9Y6R4 whole entry): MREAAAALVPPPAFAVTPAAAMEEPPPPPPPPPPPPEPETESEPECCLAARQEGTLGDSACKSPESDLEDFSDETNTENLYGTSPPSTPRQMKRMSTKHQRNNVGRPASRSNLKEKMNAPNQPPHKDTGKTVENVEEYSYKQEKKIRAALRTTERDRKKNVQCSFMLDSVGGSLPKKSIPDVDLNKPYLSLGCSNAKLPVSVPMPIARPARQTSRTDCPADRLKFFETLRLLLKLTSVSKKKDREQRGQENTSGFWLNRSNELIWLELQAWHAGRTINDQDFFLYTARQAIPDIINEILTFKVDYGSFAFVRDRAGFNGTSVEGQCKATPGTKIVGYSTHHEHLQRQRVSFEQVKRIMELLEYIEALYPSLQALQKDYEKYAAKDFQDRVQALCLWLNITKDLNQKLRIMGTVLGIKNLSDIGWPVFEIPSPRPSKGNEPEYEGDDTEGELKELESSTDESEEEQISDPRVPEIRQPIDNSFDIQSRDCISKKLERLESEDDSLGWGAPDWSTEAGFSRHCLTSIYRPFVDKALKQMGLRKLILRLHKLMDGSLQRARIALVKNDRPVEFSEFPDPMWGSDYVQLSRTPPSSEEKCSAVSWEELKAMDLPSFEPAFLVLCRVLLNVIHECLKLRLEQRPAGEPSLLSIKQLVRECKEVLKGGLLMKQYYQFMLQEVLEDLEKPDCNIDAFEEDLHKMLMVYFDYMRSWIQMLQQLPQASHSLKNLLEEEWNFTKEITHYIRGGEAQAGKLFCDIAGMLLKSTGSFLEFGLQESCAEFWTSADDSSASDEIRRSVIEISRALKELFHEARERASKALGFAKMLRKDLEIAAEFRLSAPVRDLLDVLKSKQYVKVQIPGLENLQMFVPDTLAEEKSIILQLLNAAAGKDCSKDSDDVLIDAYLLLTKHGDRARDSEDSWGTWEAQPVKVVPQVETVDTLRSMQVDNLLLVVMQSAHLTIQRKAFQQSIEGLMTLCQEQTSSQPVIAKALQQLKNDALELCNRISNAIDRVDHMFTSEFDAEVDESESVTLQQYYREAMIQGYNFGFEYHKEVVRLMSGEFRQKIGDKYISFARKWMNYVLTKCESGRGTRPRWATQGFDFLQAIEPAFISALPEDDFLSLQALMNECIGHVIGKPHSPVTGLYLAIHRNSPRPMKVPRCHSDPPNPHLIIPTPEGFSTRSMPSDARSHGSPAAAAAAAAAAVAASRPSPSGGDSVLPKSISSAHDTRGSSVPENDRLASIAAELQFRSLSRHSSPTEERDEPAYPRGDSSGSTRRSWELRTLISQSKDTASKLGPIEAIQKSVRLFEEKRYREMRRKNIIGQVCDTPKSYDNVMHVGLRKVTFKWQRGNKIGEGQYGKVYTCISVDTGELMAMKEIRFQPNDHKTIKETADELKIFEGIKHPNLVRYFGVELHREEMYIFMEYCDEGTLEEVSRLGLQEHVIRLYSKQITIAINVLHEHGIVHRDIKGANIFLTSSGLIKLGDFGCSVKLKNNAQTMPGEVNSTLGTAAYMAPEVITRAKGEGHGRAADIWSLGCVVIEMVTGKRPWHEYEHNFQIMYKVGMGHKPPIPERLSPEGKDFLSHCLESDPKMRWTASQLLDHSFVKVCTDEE
Chain of Tyrosine-protein kinase ABL1 (P00519 whole entry): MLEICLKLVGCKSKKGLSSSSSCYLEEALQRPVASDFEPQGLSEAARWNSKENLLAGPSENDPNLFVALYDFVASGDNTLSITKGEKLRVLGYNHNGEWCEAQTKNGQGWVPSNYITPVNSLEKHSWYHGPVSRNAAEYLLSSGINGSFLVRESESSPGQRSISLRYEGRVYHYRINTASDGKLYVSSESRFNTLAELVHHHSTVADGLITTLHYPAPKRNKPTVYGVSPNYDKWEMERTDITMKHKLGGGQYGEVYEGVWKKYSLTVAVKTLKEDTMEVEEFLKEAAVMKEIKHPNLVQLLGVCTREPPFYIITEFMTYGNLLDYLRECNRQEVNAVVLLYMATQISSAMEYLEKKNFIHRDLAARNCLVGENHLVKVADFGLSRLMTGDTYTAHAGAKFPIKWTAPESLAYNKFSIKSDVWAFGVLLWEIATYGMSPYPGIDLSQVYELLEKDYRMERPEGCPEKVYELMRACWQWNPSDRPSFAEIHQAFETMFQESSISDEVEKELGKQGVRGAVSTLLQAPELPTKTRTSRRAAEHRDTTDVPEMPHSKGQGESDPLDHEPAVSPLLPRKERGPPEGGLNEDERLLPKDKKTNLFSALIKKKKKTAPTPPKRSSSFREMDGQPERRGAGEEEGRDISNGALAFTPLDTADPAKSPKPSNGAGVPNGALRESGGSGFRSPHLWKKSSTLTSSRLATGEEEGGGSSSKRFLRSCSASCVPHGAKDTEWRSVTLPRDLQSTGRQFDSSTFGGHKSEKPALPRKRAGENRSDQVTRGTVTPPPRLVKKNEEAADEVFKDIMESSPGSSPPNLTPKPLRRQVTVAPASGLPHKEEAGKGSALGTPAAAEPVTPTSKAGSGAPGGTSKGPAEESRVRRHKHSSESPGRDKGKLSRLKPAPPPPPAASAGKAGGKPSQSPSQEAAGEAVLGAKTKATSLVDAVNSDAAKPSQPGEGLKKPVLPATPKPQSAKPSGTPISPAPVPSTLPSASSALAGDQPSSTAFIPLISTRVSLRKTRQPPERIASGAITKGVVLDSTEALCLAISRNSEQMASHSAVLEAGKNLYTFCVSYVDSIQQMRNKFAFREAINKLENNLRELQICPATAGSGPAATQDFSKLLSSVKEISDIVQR
Chain of Cyclin-dependent kinase 9 (P50750 whole entry): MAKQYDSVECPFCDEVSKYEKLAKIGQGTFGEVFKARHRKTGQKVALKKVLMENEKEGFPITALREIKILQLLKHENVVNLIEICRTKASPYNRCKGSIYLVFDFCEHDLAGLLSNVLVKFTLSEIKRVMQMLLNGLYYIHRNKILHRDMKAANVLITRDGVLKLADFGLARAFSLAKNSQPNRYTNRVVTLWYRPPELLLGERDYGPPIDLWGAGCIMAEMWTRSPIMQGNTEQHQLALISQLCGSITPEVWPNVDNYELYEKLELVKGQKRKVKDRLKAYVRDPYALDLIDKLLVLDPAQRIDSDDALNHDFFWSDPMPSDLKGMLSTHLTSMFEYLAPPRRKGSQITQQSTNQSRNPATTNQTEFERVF

Structure (SMILES): COc1cc(N(C)c2ccnc3ccc(C(F)(F)F)cc23)cc(OC)c1OC
- % binding [1]: 89%
- % binding [2]: 89%

Structure (SMILES): CNCCN1CCC(c2cc(CN(C)C(=O)c3cccc(Oc4ccccc4)c3)ccn2)CC1
- % activity [3]: > 90%

Structure (SMILES): C=CC(=O)Nc1cc(-n2c(=O)ccc3cnc4ccc(-c5ccc(NS(C)(=O)=O)cc5)cc4c32)ccc1C
- % of control ([4]; at 1 µM): 87%
- % of control ([4]; at 10 µM): 100%
- % of control [5]: 100%

Structure (SMILES): Nc1cnc(N2CCc3cc(S(=O)(=O)Nc4c(F)cc(Cl)cc4F)cc(N4CCCC4=O)c32)nc1 [TP-020n]
- % of control [6]: 100%

Structure (SMILES): CCc1cccc(CC)c1NC(=O)c1nn(C)c2c1CCc1cnc(Nc3ccc(C(=O)NC4CCN(C)CC4)cc3OC(F)(F)F)nc1-2
- IC50 [7]: > 10 µM

Structure (SMILES): N#Cc1cccc(-c2c[nH]c3ncnc(N4CCOCC4)c23)c1
- % of control [8]: 100%

Structure (SMILES): CC[C@@H]1[C@H](F)C(=O)N[C@@H]1COc1nccc2cc(C(N)=O)c(OC)cc12 [ZIMLOVISERTIB]
- % of inhibition [9]: 16.4%
